The results in this text go back to patent US11597706B2, “Compounds and compositions for treating conditions associated with NLRP activity” (Novartis AG, priority 2016, dated 2023).

Bounds are passed on as bounds.

T1 sequence (Q96P20 whole entry): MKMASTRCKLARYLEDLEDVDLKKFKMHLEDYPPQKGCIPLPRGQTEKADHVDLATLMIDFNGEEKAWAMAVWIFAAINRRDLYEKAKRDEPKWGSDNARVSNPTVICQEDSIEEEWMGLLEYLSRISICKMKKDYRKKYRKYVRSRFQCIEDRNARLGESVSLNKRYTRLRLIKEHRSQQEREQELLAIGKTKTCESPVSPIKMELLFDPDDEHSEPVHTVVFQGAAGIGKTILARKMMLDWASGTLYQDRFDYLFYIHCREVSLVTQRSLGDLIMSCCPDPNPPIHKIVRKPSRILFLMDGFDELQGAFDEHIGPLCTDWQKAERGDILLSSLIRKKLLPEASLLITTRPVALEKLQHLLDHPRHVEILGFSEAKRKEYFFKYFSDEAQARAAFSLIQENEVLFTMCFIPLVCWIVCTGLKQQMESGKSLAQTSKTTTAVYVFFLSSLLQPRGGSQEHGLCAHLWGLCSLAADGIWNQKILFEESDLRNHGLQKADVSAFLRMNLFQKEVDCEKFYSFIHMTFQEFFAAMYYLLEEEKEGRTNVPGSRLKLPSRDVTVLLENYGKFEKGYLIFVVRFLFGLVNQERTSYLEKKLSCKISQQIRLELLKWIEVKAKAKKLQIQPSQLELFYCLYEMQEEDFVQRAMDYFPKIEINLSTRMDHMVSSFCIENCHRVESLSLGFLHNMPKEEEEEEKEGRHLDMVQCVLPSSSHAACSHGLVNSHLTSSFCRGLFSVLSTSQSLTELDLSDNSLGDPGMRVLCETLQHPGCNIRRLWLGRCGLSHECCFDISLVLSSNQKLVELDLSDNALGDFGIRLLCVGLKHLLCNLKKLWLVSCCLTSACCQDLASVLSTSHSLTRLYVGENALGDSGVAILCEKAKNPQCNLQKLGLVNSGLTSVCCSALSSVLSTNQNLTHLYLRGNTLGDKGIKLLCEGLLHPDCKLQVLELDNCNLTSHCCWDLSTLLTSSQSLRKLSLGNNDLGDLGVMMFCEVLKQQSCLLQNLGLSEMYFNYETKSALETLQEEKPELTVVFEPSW

One test concerns the target T1, hNLRP3 (THP-1, IL-1β) (Homo sapiens, UniProt Q96P20).
T1 construct: THP-1 cells were purchased from the American Type Culture Collection; host or cells: THP-1 cells, PMA-differentiated, stimulated with gramicidin
Briefly: IL-1β production in PMA-differentiated THP-1 cells stimulated with gramicidin. As to conditions: Table 1, gramicidin 5 μM, IL-1β readout. It is filed as cell-based. The protocol: IL-1β Production in PMA-Differentiated THP-1 Cells Stimulated With Gramicidin.
Cell culture-THP-1 cells were purchased from the American Type Culture Collection and sub-cultured according to instructions from the supplier. Prior to experiments, cells were cultured in RPMI 1640 containing 10% heat inactivated FBS, penicillin (100 units/ml) and streptomycin (100 μg/ml), and maintained in log phase prior to experimental setup. Prior to the experiment THP-1 were treated with PMA (Phorbol 12-myristate 13-acetate) (10 μg/ml) for 24 hours. The day of the experiment the media was removed and attaching cells were treated with trypsin for 2 minutes, cells were then collected, washed with PBS (phosphate buffer saline), spin down, resuspended in 2% heat inactivated FBS with RPMI at a concentration of 1×10^6 cells/ml, and 100 μl was plated in a 96 well plate. Cells were incubated with compounds for 1 hours and then stimulated with Gramicidin (5 μM) (Enzo) for 2 hours. Cell free supernatant was collected and the production of IL-1β was evaluated by ELISA. Compounds were dissolved in dimethyl sulfoxide (DMSO) and added to the culture medium to achieve desired concentration (e.g. 100, 30, 10, 3, 1, 0.3 or 0.1 μM). A vehicle only control was run concurrently with each experiment. Final DMSO concentration was 1%.
THP-1 cells were purchased from the American Type Culture Collection and sub-cultured according to instructions from the supplier. Prior to experiments, cells were cultured in complete RPMI 1640 (containing 10% heat inactivated FBS, penicillin (100 units/ml) and streptomycin (100 μg/ml)), and maintained in log phase prior to experimental setup. Prior to the experiment THP-1 were treated with PMA (Phorbol 12-myristate 13-acetate) (20 ng/ml) for 16-18 hours. On the day of the experiment the media was removed and adherent cells were detached with trypsin for 5 minutes. Cells were then harvested, washed with complete RPMI 1640, spun down, resuspended in RPMI 1640 (containing 2% heat inactivated FBS, penicillin (100 units/ml) and streptomycin (100 μg/ml). The cells were plated in a 384-well plate at a density of 50,000 cells/well (final assay volume 50 μl). Compounds were dissolved in dimethyl sulfoxide (DMSO) and added to the culture medium to achieve desired concentration (e.g. 100, 33, 11, 3.7, 1.2, 0.41, 0.14, 0.046, 0.015, 0.0051, 0.0017 μM). Cells were incubated with compounds for 1 hour and then stimulated with gramicidin (5 μM) (Enzo) for 2 hours. Cell free supernatant was collected and the production of IL-1β was evaluated by HTRF (cisbio). A vehicle only control was run concurrently with each experiment. Final DMSO concentration was 0.38%.
A word on the IC50: it is the midpoint of a concentration-inhibition curve. High values mean weaker potency in that assay, low ones greater potency in that assay. In the case of `CC(C)(O)c1cc(C#N)cc(S(=O)(=O)NC(=O)Nc2c3c(c(Cl)c4c2CCC4)CCC3)c1` [Compound 110, N-(8-chloro-1,2,3,5,6,7-hexahydros-indacen-4-ylcarbamoyl)-3-cyano-5-(2-hydroxypropan-2-yl)benzenesulfonamide], the IC50 was < 1 µM.
For `CC(C)(O)c1cccc(S(=O)(=O)NC(=O)Nc2c3c(c(F)c4c2CCC4)CCC3)c1` [Compound 111, N-(8-fluoro-1,2,3,5,6,7-hexahydros-indacen-4-ylcarbamoyl)-3-(2-hydroxypropan-2-yl)benzenesulfonamide], the IC50 was < 1 µM.
Still for that read-out and setting: the value for `CC(C)(O)c1cc(C#N)cc(S(=O)(=O)NC(=O)Nc2c3c(c(F)c4c2CCC4)CCC3)c1` [Compound 112, 3-cyano-N-(8-fluoro-1,2,3,5,6,7-hexahydros-indacen-4-ylcarbamoyl)-5-(2-hydroxypropan-2-yl)benzenesulfonamide] was < 1 µM; that for `CC(C)(O)c1cc(Cl)cc(S(=O)(=O)NC(=O)Nc2c3c(c(F)c4c2CCC4)CCC3)c1` [Compound 113, 3-chloro-N-(8-fluoro-1,2,3,5,6,7-hexahydros-indacen-4-ylcarbamoyl)-5-(2-hydroxypropan-2-yl)benzenesulfonamide] was < 1 µM.
For `CC(C)(O)c1cc(F)cc(S(=O)(=O)NC(=O)Nc2c3c(c(F)c4c2CCC4)CCC3)c1` [Compound 114, 3-fluoro-N-(8-fluoro-1,2,3,5,6,7-hexahydros-indacen-4-ylcarbamoyl)-5-(2-hydroxypropan-2-yl)benzenesulfonamide], the IC50 was < 1 µM.
On the same count and under the same terms, the value for `CC(C)c1cccc(C(C)C)c1NC(=O)NS(=O)(=O)c1cc(C#N)cc(C(C)(C)O)c1` [Compound 115, 3-cyano-N-(2,6-diisopropylphenylcarbamoyl)-5-(2-hydroxypropan-2-yl)benzenesulfonamide] was < 1 µM; that for `CC(C)c1cc(C#N)cc(C(C)C)c1NC(=O)NS(=O)(=O)c1cc(C#N)cc(C(C)(C)O)c1` [Compound 116, 3-cyano-N-(4-cyano-2,6-diisopropylphenylcarbamoyl)-5-(2-hydroxypropan-2-yl)benzenesulfonamide] was < 1 µM.
Take `CC(C)c1cc(F)cc(C(C)C)c1NC(=O)NS(=O)(=O)c1cc(C#N)cc(C(C)(C)O)c1` [Compound 117, 3-cyano-N-(4-fluoro-2,6-diisopropylphenylcarbamoyl)-5-(2-hydroxypropan-2-yl)benzenesulfonamide]: the IC50 is < 1 µM.
In the case of `CC(C)c1cccc(C(C)C)c1NC(=O)NS(=O)(=O)c1cc(Cl)cc(C(C)(C)O)c1` [Compound 120, 3-chloro-N-(2,6-diisopropylphenylcarbamoyl)-5-(2-hydroxypropan-2-yl)benzenesulfonamide], the half-maximal inhibitory concentration (IC50) was < 1 µM.
Still for that read-out and setting: the value for `CC(C)c1cc(F)cc(C(C)C)c1NC(=O)NS(=O)(=O)c1cc(Cl)cc(C(C)(C)O)c1` [Compound 123, 3-chloro-N-(4-fluoro-2,6-diisopropylphenylcarbamoyl)-5-(2-hydroxypropan-2-yl)benzenesulfonamide] was < 1 µM; that for `CC(C)c1cc(C#N)cc(C(C)C)c1NC(=O)NS(=O)(=O)c1cc(F)cc(C(C)(C)O)c1` [Compound 126] was < 1 µM.
Turning to `CC(C)c1cc(F)cc(C(C)C)c1NC(=O)NS(=O)(=O)c1cc(F)cc(C(C)(C)O)c1` [Compound 127, 3-fluoro-N-(4-fluoro-2,6-diisopropylphenylcarbamoyl)-5-(2-hydroxypropan-2-yl)benzenesulfonamide], the 50% inhibitory concentration (IC50) is < 1 µM.
The same measure, in the same setting: the value for `CC(C)(O)c1ccc(F)c(S(=O)(=O)NC(=O)Nc2c3c(cc4c2CCC4)CCC3)c1` [Compound 131, 1-[[2-fluoro-5-(2-hydroxypropan-2-yl)benzene]sulfonyl]-3-(1,2,3,5,6,7-hexahydro-s-indacen-4-yl)urea] was < 1 µM.

The same test, now with this note: Table 2, gramicidin 5 μM, IL-1β readout.
As for `CC(C)c1ccc(F)c(C(C)C)c1NC(=O)NS(=O)(=O)c1cc(Cl)cc(C(C)(C)O)c1` [Compound 137, 3-chloro-N-(3-fluoro-2,6-diisopropylphenylcarbamoyl)-5-(2-hydroxypropan-2-yl)benzenesulfonamide], the concentration for half-maximal inhibition (IC50) was < 1 µM.
The same measure, in the same setting: next, `CC(C)c1cc(C#N)cc(C(C)C)c1NC(=O)NS(=O)(=O)c1cc(Cl)cc(C(C)(C)O)c1` [Compound 138, 3-chloro-N-(4-cyano-2,6-diisopropylphenylcarbamoyl)-5-(2-hydroxypropan-2-yl)benzenesulfonamide]: < 1 µM; `CC(C)c1ccc(F)c(C(C)C)c1NC(=O)NS(=O)(=O)c1cccc(C(C)(C)O)c1` [Compound 141, N-(3-fluoro-2,6-diisopropylphenylcarbamoyl)-3-(2-hydroxypropan-2-yl)benzenesulfonamide]: < 1 µM; `CC(C)(O)c1cc(C#N)cc(S(=O)(=O)NC(=O)Nc2c3c(cc4c2CCC4)CCC3)c1` [Compound 142]: < 1 µM.
The same measure, in the same setting: the value for `CC(C)(O)c1cc(C(C)(C)O)cc(S(=O)(=O)NC(=O)Nc2c3c(cc4c2CCC4)CCC3)c1` [Compound 143] was < 1 µM; that for `CC(C)c1ccc(F)c(C(C)C)c1NC(=O)NS(=O)(=O)c1cc(F)cc(C(C)(C)O)c1` [Compound 144, 3-fluoro-N-(3-fluoro-2,6-diisopropylphenylcarbamoyl)-5-(2-hydroxypropan-2-yl)benzenesulfonamide] was < 1 µM; that for `CC(C)c1cc(Cl)cc(C(C)C)c1NC(=O)NS(=O)(=O)c1cc(C#N)cc(C(C)(C)O)c1` [Compound 145, N-(4-chloro-2,6-diisopropylphenylcarbamoyl)-3-cyano-5-(2-hydroxypropan-2-yl)benzenesulfonamide] was < 1 µM.
`CC(C)(O)c1cc(N2CCOCC2)cc(S(=O)(=O)NC(=O)Nc2c3c(cc4c2CCC4)CCC3)c1` [Compound 146]: the IC50 is < 1 µM.
Same read-out and setting: next, `CC(C)c1cc(C#N)cc(C(C)C)c1NC(=O)NS(=O)(=O)c1cccc(C(C)(C)O)c1` [Compound 147, N-(4-cyano-2,6-diisopropylphenylcarbamoyl)-3-(2-hydroxypropan-2-yl)benzenesulfonamide]: < 1 µM; `CC(C)c1ccc(F)c(C(C)C)c1NC(=O)NS(=O)(=O)c1cc(C#N)cc(C(C)(C)O)c1` [Compound 148, 3-cyano-N-(3-fluoro-2,6-diisopropylphenylcarbamoyl)-5-(2-hydroxypropan-2-yl)benzenesulfonamide]: 1 to 5 µM; `CC(C)(O)c1cc(-c2ccncc2)cc(S(=O)(=O)NC(=O)Nc2c3c(cc4c2CCC4)CCC3)c1` [Compound 149, N-(1,2,3,5,6,7-hexahydro-sindacen-4-ylcarbamoyl)-3-(2-hydroxypropan-2-yl)-5-(pyridin-4-yl)benzenesulfonamide]: 1 to 5 µM.
Still for that read-out and setting: the value for `CC(C)c1cc(Cl)cc(C(C)C)c1NC(=O)NS(=O)(=O)c1cc(F)cc(C(C)(C)O)c1` [Compound 150, N-(4-chloro-2,6-diisopropylphenylcarbamoyl)-3-fluoro-5-(2-hydroxypropan-2-yl)benzenesulfonamide] was 1 to 5 µM; that for `CC(C)(O)c1cc(-c2ccccc2)cc(S(=O)(=O)NC(=O)Nc2c3c(cc4c2CCC4)CCC3)c1` [Compound 151, N-(1,2,3,5,6,7-hexahydro-sindacen-4-ylcarbamoyl)-5-(2-hydroxypropan-2-yl)biphenyl-3-sulfonamide] was 1 to 5 µM; that for `CC(C)c1ccc(F)c(C(C)C)c1NC(=O)NS(=O)(=O)c1cc(-c2ccccc2)cc(C(C)(C)O)c1` [Compound 153, N-(3-fluoro-2,6-diisopropylphenylcarbamoyl)-5-(2-hydroxypropan-2-yl)biphenyl-3-sulfonamide] was 1 to 5 µM.
Still for that read-out and setting: the value for `CC(C)c1cc(Cl)cc(C(C)C)c1NC(=O)NS(=O)(=O)c1cc(Cl)cc(C(C)(C)O)c1` [Compound 154, 3-chloro-N-(4-chloro-2,6-diisopropylphenylcarbamoyl)-5-(2-hydroxypropan-2-yl)benzenesulfonamide] was 1 to 5 µM; that for `CC(C)c1ccc(F)c(C(C)C)c1NC(=O)NS(=O)(=O)c1cc(C(C)(C)O)cc(C(C)(C)O)c1` [Compound 155, N-(3-fluoro-2,6-diisopropylphenylcarbamoyl)-3,5-bis(2-hydroxypropan-2-yl)benzenesulfonamide] was 1 to 5 µM.
